The target of one assay is T1, human 5-HT1B receptor (Homo sapiens, UniProt P28222).
T1 construct: host or cells: HEK293T
As to the kind of experiment: cAMP accumulation (LANCE Ultra TR-FRET) in HEK293T cells, WT 5-HT1B. The following applies: for EC50: cAMP accumulation, HEKt cells, mean ± SD; for Emax: HEK-293T. The format is cell-based. The protocol:
(§1) Briefly, cells transfected with the desired receptor construct and compounds were incubated in the dark for 90 min at 37 °C. After incubation, cAMP detection reagents were added, and TR-FRET was used to quantify the cAMP produced.
(§2) The functional activity of compounds was determined by stimulating cells expressing the desired receptor with FSK and test compound in parallel with 12 known concentrations of cAMP. The known concentrations of cAMP were used to create a standard curve for each experiment that was used to interpolate the unknown values of cAMP in wells with test compounds. […] The EC50 and EMAX values were determined using the “dose response – log[agonist] vs response (three parameter)” nonlinear regression model in Prism and transformed to pEC50 values, reported as mean ± SD.
(§3) Summary of functional assay conditions at various 5-HT1 receptor point mutation constructs.

The target of the next assay is T2, human 5-HT1D receptor (Homo sapiens, UniProt P28221).
T2 construct: host or cells: HEK293T
The assay can be described thus: cAMP accumulation (LANCE Ultra TR-FRET) in HEK293T cells, WT 5-HT1D. Type of assay: cell-based. The note with it: for Emax: HEK-293T; for higher functional potency at 5-HT1D over 5-HT1A receptors: cAMP potency ratio; for EC50: cAMP accumulation, HEKt cells, mean ± SD. The method, then:
as §1, §2, §3
Background: cAMP levels reflect the balance of adenylyl cyclase and phosphodiesterase activity.

Another assay deals with T3, Y5.38F 5-HT1B receptor (Homo sapiens, UniProt P28222, Y208F).
T3 construct: host or cells: HEK293T
As to the kind of experiment: Radioligand binding, Y5.38F 5-HT1B. The note with it: read-out: pKi 5-HT1B Receptor Y5.38F (converted).

The next assay addresses T7.39N 5-HT1D receptor (Homo sapiens, UniProt P28221, T342N). As to the kind of experiment: cAMP accumulation in HEK293T cells, T7.39N 5-HT1D. More on the design: host or cells: HEK293T. The following applies: point-mutated receptor, 3 independent experiments, read-out: pEC50 5-HT1D Receptor N7.39T (converted). The format is cell-based. The method, then: as §1, §2
Cell Type Receptor Cell Density [Forskolin] Incubation time
as §3

A further assay has as its target Y5.38F 5-HT1D receptor (Homo sapiens, UniProt P28221, Y197F). As to the kind of experiment: cAMP accumulation in HEK293T cells, Y5.38F 5-HT1D. The note with it: point-mutated receptor, 3 independent experiments, read-out: pEC50 5-HT1D Receptor Y5.38F (converted). Details: host or cells: HEK293T. Type of assay: cell-based. The method, then: as §1, §2, §3
The target of a further assay is T7.39N 5-HT1B receptor (Homo sapiens, UniProt P28222, T355N). The assay can be described thus: Radioligand binding, T7.39N 5-HT1B.
For the next assay, the target named is S5.42A 5-HT1B receptor (Homo sapiens, UniProt P28222, S212A). As to the kind of experiment: Radioligand binding, S5.42A 5-HT1B.
The target of the next assay is V45.52I 5-HT1D receptor (Homo sapiens, UniProt P28221, V190I). The assay can be described thus: Radioligand binding, V45.52I 5-HT1D.
In the next assay the target is T4, Y5.38F 5-HT1A receptor (Homo sapiens, UniProt P08908, Y195F).
T4 sequence (P08908 1-422 Y195F): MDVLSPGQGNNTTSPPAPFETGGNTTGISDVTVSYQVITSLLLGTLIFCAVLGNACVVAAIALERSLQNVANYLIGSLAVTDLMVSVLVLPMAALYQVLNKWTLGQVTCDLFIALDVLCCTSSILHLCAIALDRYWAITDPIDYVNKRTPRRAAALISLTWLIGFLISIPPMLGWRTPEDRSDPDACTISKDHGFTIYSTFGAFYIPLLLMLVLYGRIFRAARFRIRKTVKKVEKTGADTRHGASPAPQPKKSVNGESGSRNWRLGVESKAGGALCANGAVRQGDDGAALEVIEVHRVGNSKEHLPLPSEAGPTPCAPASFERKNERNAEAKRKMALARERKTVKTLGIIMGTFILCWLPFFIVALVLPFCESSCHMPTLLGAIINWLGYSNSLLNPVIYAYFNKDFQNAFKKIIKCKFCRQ
The assay can be described thus: cAMP accumulation in HEK293T cells, Y5.38F 5-HT1A. Type of assay: cell-based. More on the design: mutated in house (Quikchange II) HTR01A0000; host or cells: HEK293T. The note with it: point-mutated receptor, 3 independent experiments, read-out: pEC50 5-HT1A Receptor Y5.38F (converted). The method, then: as §1, §2, §3

In the next assay the target is T5, S5.42A 5-HT1A receptor (Homo sapiens, UniProt P08908, S199A).
T5 sequence (P08908 1-422 S199A): T4 sequence (P08908 1-422 Y195F) with F195Y, S199A
As to the kind of experiment: cAMP accumulation in HEK293T cells, S5.42A 5-HT1A. The format is cell-based. Details: mutated in house (Quikchange II) HTR01A0000; host or cells: HEK293T. The note with it: point-mutated receptor, 3 independent experiments, read-out: pEC50 5-HT1A Receptor S5.42A (converted). The protocol: as §1, §2, §3

The mark [1] stands for this setting: read-out: 5-HT1B EMAX (%), WT receptor, normalized to basal (0%) and 10 μM 5-CT (100%).
Setting [2] is: read-out: 5-HT1D EMAX (%), WT receptor, normalized to basal (0%) and 10 μM 5-CT (100%).

SMILES strings stand for the structures. Numbering of substitutions follows the chain as printed. Read-outs that look alike come from different tables or passages of the source.

S5.42A 5-HT1B receptor, sequence (P28222 whole entry S212A): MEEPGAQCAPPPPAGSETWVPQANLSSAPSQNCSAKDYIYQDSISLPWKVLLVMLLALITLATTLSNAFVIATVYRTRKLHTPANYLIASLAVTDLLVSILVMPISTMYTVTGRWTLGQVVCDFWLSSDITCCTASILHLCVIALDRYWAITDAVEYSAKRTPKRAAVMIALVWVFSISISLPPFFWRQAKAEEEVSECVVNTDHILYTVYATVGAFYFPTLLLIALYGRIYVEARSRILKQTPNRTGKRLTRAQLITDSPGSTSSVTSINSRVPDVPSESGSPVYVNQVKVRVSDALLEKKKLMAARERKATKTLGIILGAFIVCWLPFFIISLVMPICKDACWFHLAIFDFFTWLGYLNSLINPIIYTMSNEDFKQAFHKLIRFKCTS
Y5.38F 5-HT1D receptor, sequence (P28221 whole entry Y197F): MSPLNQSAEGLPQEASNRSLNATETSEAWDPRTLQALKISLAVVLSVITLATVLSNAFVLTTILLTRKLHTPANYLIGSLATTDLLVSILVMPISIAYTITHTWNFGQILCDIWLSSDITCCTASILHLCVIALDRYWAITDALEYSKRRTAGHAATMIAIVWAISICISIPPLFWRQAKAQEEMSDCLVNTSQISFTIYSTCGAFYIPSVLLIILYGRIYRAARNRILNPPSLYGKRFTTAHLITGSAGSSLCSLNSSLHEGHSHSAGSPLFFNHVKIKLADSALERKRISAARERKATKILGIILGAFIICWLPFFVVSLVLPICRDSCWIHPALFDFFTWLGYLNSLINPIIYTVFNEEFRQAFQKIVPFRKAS
T7.39N 5-HT1D receptor, sequence (P28221 whole entry T342N): as the sequence (P28221 whole entry Y197F) above, with F197Y, T342N counted along it
T2 sequence (P28221 whole entry): as the sequence (P28221 whole entry Y197F) above, with F197Y counted along it
T3 sequence (P28222 whole entry Y208F): as the sequence (P28222 whole entry S212A) above, with Y208F, A212S counted along it
T7.39N 5-HT1B receptor, sequence (P28222 whole entry T355N): as the sequence (P28222 whole entry S212A) above, with A212S, T355N counted along it
V45.52I 5-HT1D receptor, sequence (P28221 whole entry V190I): as the sequence (P28221 whole entry Y197F) above, with V190I, F197Y counted along it
T1 sequence (P28222 whole entry): as the sequence (P28222 whole entry S212A) above, with A212S counted along it
Procedure for S5.42A 5-HT1B receptor: (§4) 48 hours after transfection with the desired receptor construct, cells were isolated for saturation and competition binding assays as previously described.[47],[48],[57] Saturation and competition radioligand binding assays were conducted in an assay buffer consisting of 50 mM Tris HCl, 10 mM MgCl2, and 0.1 mM EDTA in filtered deionized water. […] Briefly, 5–10 μg of the receptor protein, as determined by a Thermo Fisher Pierce BCA protein assay kit, was incubated with 8 concentrations of radioligand in triplicate to determine total binding. […] Nonspecific binding was determined as above for saturation assays.
(§5) For radioligand binding data, nonspecific binding was subtracted from the total binding to get specific binding. Saturation binding data was fit to the “binding saturation-specific binding with hill slope” model. Competition binding data were fit to the “binding competition-one-site fit Ki” non-linear regression model and transformed to pKi values, reported as mean ± SD.
(§6) is 50 mM Tris HCl, 10 mM MgCl2 and 0.1 mM EDTA in filtered deionized water.
Procedure for T7.39N 5-HT1B receptor: as §4, §5, §6
Procedure for V45.52I 5-HT1D receptor: as §4, §5, §6

For orientation: Emax means the maximal effect, on the per cent scale that the assay sets. `CN(C)[C@H]1CCc2c(cccc2-c2ccccc2F)C1` [(S)-FPT]: the EC50 on human 5-HT1B receptor (5-HT1B pEC50, WT receptor) is 0.49 nM; at T7.39N 5-HT1D receptor it was 14.1 nM; at Y5.38F 5-HT1D receptor it was 1.55 nM. The figures for the Emax at human 5-HT1B receptor (setting [1]) and at human 5-HT1D receptor (setting [2]) were greater than 90% and 103 ± 3%, respectively. Moreover, at human 5-HT1B receptor (WT receptor, normalized to basal (0%) and 10 μM 5-CT (100%)), the “5-HT1B EMAX (%)” value is 100 ± 2%. Besides, the “higher functional potency at 5-HT1D over 5-HT1A receptors” value on human 5-HT1D receptor was roughly 80 fold. Moreover, the Ki at Y5.38F 5-HT1B receptor is 1.91 nM; on T7.39N 5-HT1B receptor, 7.41 nM; at S5.42A 5-HT1B receptor, 2.57 nM; at V45.52I 5-HT1D receptor it was 1.05 nM.

Turning to `CN(C)[C@H]1CCc2c(cccc2-c2cccc3ccccc23)C1` [(S)-NAP], the EC50 on human 5-HT1B receptor (5-HT1B pEC50, WT receptor) is 34.7 nM; at human 5-HT1D receptor (5-HT1D pEC50, WT receptor), 8.71 nM; on T7.39N 5-HT1D receptor, 10 nM; on Y5.38F 5-HT1D receptor, 11.2 nM; at Y5.38F 5-HT1A receptor, 380 nM; at S5.42A 5-HT1A receptor it was 363 nM. Further, the results for the Emax at human 5-HT1B receptor (setting [1]) and on human 5-HT1D receptor (setting [2]) were 30 ± 4% and 90 ± 3%, respectively. On human 5-HT1B receptor (cAMP potency ratio), the “higher functional potency at 5-HT1B over 5-HT1A receptors” value was “about 10 fold”. The “higher functional potency at 5-HT1D over 5-HT1A receptors” value at human 5-HT1D receptor is roughly 40 fold. Besides, the Ki is 5.62 nM at Y5.38F 5-HT1B receptor, 6.46 nM at T7.39N 5-HT1B receptor, 5.89 nM on S5.42A 5-HT1B receptor and 37.2 nM on V45.52I 5-HT1D receptor.

With `Fc1ccccc1-c1cccc2c1CC[C@H](N1CCCC1)C2` [(S)-PFPT], the maximal response (Emax) at human 5-HT1B receptor (read-out: 5-HT1B EMAX (%)) turned out to be 99 ± 2%; at human 5-HT1D receptor (read-out: 5-HT1D EMAX (%)), 98 ± 3%. For the same compound, the EC50 at human 5-HT1B receptor (WT receptor, read-out: 5-HT1B pEC50 (converted)) is 56.2 nM; at human 5-HT1D receptor (WT receptor, read-out: 5-HT1D pEC50 (converted)) it was 57.5 nM; at T7.39N 5-HT1D receptor, 18.6 nM; at Y5.38F 5-HT1D receptor it was 240 nM; at Y5.38F 5-HT1A receptor, 2.09 nM; on S5.42A 5-HT1A receptor, 1.62 nM. The Ki was 15.1 nM on Y5.38F 5-HT1B receptor, 5.89 nM on T7.39N 5-HT1B receptor, 102 nM at S5.42A 5-HT1B receptor and 14.8 nM on V45.52I 5-HT1D receptor.

These data come from paper PMC10797628.
